Results: patent US20170049843A1, “Hepatocyte Growth Factor Mimics as Therapeutic Agents” (WASHINGTON STATE UNIVERSITY, priority 2011, published 2017)
Entries after “also recorded” stand apart in the source; their conditions may differ. Where a SMILES comes first, the peptide text is derived from it. [ ]: non-standard residue; d: D form. dNle = CCCC[C@@H](N)C(=O)O; Ahx = NCCCCCC(=O)O

Assays:
MDCK cells [1] = experiment: HGF-dependent MDCK cell proliferation (MTT); assay type: cell-based, canine; settings: 10^−10 M, 4 days, HGF 10 ng/ml
Experimental: 5000 MDCK cells were seeded into the wells of a 96 well plates in 10% FBS DMEM. To induce cellular quiescence, the cells were serum deprived for 24 h prior to initiating the treatments. Following serum starvation, 10 ng/ml HGF alone and with various concentrations of 6-AH analogs or PBS vehicle were added to the media. The cells were allowed to grow under these conditions for 4 days with a daily addition of 6-AH analogs. On the fourth day, 1 mg/ml of 1-(4, 5-Dimethylthiazol-2-yl) 3, 5-diphenylformazan reagent (MTT, Sigma-Aldrich) prepared in PBS was added to the cells and incubated for 4 h. Dimethyl sulfoxide diluted in a 0.01M glycine buffer was added to solubilize the cell membranes and the absorbance of reduced MTT in the buffer was quantitated at 590 nm using a plate reader (Biotek Synergy 2, Winooski, Vt.). HGF-dependent proliferation was determined by subtracting the basal proliferation (in the absence of HGF) from total proliferation rates in groups containing HGF.

in vivo = settings: male, Sprague-Dawley, rat, iv, 24 mg/kg
Experimental: Male Sprague-Dawley rats (250+g) were allowed food (Harlan Teklad rodent diet) and water ad libitum in our AAALAC certified animal facility. Rats were housed in temperature-controlled rooms with a 12 h light/dark cycle. The right jugular veins of the rats were catheterized with sterile polyurethane Hydrocoat™ catheters (Access Technologies, Skokie, Ill., USA) under ketamine (Fort Dodge Animal Health, Fort Dodge, Iowa, USA) and isoflurane (Vet One™, MWI, Meridian, Id., USA) anesthesia. The catheters were exteriorized through the dorsal skin. The catheters were flushed with heparinized saline before and after blood sample collection and filled with heparin-glycerol locking solution (6 mL glycerol, 3 mL saline, 0.5 mL gentamycin (100 mg/mL), 0.5 mL heparin (10,000 u/mL)) when not used for more than 8 h. The animals were allowed to recover from surgery for several days before use in any experiment, and were fasted overnight prior to the pharmacokinetic experiment. […]
Pharmacokinetic analysis was performed using data from individual rats. The mean and standard deviation (SD) were calculated for the group. Non-compartmental pharmacokinetic parameters were calculated from serum drug concentration-time profiles by use of WinNonlin® software (Pharsight, Mountain View, Calif., USA).

MDCK cells [2] = experiment: Inhibition of HGF-dependent scattering in MDCK cells; assay type: cell-based, canine; settings: HGF 20 ng/ml, 48 h
Experimental: (§1) MDCK cells were grown to 100% confluency on the coverslips in six-well plates and washed twice with PBS. The confluent coverslips were then aseptically transferred to new six well plates containing 900 μl serum free DMEM. Norleual, Hinge peptide, and/or HGF (20 ng/ml) were added to appropriate wells. Control wells received PBS vehicle. Plates were incubated at 37° C. with 5% CO2 for 48 hours. Media was removed and cells were fixed with methanol. Cells were stained with Diff-Quik Wright-Giemsa (Dade-Behring, Newark, Del.) and digital images were taken. Coverslips were removed with forceps and more digital images were captured. Pixel quantification of images was achieved using Image J and statistics were performed using Prism 5 and InStat v.3.05.
as §1, with “h.” for “hours.”, “v.3.05 (GraphPad; San Diego, Calif.).” for “v.3.05.”

HGF [3] = biological target: T1, HGF (Homo sapiens, UniProt P14210); experiment: HGF dimerization; assay type: biochemical; settings: analog at 10^−10M, 30 minute incubation with heparin
T1 construct: purchased R&D Systems (Minneapolis, Minn.)
Experimental: HGF dimerization was assessed using PAGE followed by silver staining (Kawas et al., 2011). Human HGF at a concentration of 0.08 ng/μl with or without 6-AH analogs was incubated with heparin at a final concentration of 5 μg/ml. Loading buffer was then added to each sample and the mixture separated by native PAGE using gradient Criterion XT precast gels (4-12% Bis-Tris; Biorad Laboratories, Hercules, Calif.). Next the gel was silver stained for the detection of the HGF monomers and dimers. Bands were quantitated from digital images using a UVP phosphoimager (Upland, Calif.).

HGF [4] = biological target: T1, HGF; experiment: HGF binding, competition with 3H-Hinge
Experimental: The binding of 6-AH analogs to HGF was assessed by competition using a soluble binding assay. 250 μl of PBS containing human HGF (1.25 ng) were incubated with ^3H-Hinge, the central dimerization domain of HGF, in the presence of varying concentrations of 6-AH analogs between 10^−13 M to 10^−7M (half-log dilutions) for 40 min at 37° C. The incubates were then spun through Bio-Gel P6 spin columns (400 μl packed volume) for 1 min to separate free and bound ^3H-Hinge and the eluent was collected. Five milliliters of scintillation fluid was added to the eluent, which contained the HGF bound ^3H-Hinge, and was then counted using scintillation counter. Total disintegrations per minute of bound ^3H-Hinge were calculated based on machine counting efficiency. The Ki values for the binding of the peptides were determined using the Prism 5. Competition binding curves were performed in triplicate.

Met = experiment: Inhibition of HGF-dependent Met phosphorylation in HEK293 cells; assay type: cell-based, human; settings: 10 min
Experimental: HEK293 cells were seeded in 6 well tissue culture plates and grown to 95% confluency in DMEM containing 10% FBS. The cells were serum deprived for 24 h prior to the treatment to reduce the basal levels of phospho-Met. Following serum starvation, cocktails comprised of vehicle and HGF with/without 6-AH analogs were prepared and pre-incubated for 30 min at room temperature. The cocktail was then added to the cells for 10 min to stimulate the Met receptor and downstream proteins. Cells were harvested using RIPA lysis buffer (Millipore; Billerica, Mass.) fortified with phosphatase inhibitor cocktails 1 and 2 (Sigma-Aldrich; St. Louis, Mo.). The lysate was clarified by centrifugation at 15,000 n×g for 15 min, protein concentrations were determined using the BCA total protein assay (Pierce), and then appropriate volumes of the lysates were diluted with 2× reducing Laemmli buffer and heated for ten min at 95° C. Samples containing identical amounts of protein were resolved using SDS-PAGE (Criterion, BioRad Laboratories), transferred to nitrocellulose, and blocked in Tris-buffered saline (TBS) containing 5% milk for 1 h at room temperature. The phospho-Met antibody were added to the blocking buffer at a final concentration of 1:1000 and incubated at 4° C. overnight with gentle agitation. The membranes were then washed several times with water and TBS ([…]), a 1:5000 dilution of horseradish-peroxidase conjugated goat anti-rabbit antiserum was added, and the membranes further incubated for 1 h at room temperature. Proteins were visualized using the Supersignal West Pico Chemiluminescent Substrate system (Pierce, Fenton, Mo.) and molecular weights determined by comparison to protein ladders (BenchMark, Invitrogen, and Kaleidoscope, BioRad). Film images were digitized and analyzed using a UVP phosphoimager.

[5] = Microsomal metabolism, rat liver microsomes; assay type: in vitro ADME; settings: over 90 min, data not shown
[6] = test system: B16-F10 murine melanoma cells; experiment: B16-F10 melanoma lung colony formation; assay type: in vivo, mouse; settings: C57BL/6 mice, daily IP 10 μg/kg/day or 100 μg/kg/day, 14 days
Experimental: Six to eight month old C57BL/6 mice were injected with 400,000 B16-F10 cells in 200 μl PBS by tail vein injection and subsequently received daily intraperitoneal injections of either D-Nle-X-Cys-NH—(CH2)5—CONH2 (10 μg/kg and 100 μg/kg) or a PBS vehicle control. Two weeks later, mice were anesthetized and lungs were perfused with PBS and removed. Photos were taken and lungs were solubilized in 1% Triton x-100, 20 mM Tris, 0.15 M NaCl, 2 mM EDTA, and 0.02% sodium azide. Samples were disrupted by sonication (Mixonix, Farmingdale, N.Y.) and spun. The supernatant was transferred to a 96 well plate and melanin absorbance at 410 nm was measured using a plate reader.

T1 sequence (P14210 32-728): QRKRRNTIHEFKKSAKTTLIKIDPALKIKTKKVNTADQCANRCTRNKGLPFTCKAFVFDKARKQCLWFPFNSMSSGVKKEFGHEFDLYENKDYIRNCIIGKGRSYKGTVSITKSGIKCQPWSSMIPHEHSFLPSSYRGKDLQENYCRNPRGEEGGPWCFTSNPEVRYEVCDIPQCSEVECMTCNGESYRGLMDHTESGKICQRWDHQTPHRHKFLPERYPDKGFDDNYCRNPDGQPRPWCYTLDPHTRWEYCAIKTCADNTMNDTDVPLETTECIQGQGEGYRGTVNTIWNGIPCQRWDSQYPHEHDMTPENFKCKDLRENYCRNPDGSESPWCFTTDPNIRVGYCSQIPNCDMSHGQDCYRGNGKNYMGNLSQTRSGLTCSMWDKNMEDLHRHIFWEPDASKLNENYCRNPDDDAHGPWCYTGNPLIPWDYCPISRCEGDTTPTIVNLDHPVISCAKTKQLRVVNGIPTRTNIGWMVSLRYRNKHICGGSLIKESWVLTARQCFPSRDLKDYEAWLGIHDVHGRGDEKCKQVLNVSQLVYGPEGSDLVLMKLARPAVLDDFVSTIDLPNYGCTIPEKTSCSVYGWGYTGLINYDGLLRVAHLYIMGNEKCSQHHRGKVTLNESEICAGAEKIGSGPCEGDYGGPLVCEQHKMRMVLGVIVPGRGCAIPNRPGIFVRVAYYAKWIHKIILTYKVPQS

SMILES	inhibition of HGF-dependent MDCK cell proliferation (MDCK cells [1])	C0 (in vivo)	inhibition of HGF-dependent scattering in MDCK cells (MDCK cells [2])	inhibition of HGF dimerization (HGF [3])	inhibition of HGF dimerization (HGF [3]; listed as Tyr)	affinity for HGF (in words) (HGF [4])	inhibition of HGF-dependent Met phosphorylation (Met)	Phase I metabolism in rat liver microsomes [5]	inhibition of HGF dimerization (HGF [3]; listed as Cys)	pulmonary colonization by B16-F10 melanoma cells [6]
CCCC[C@@H](N)C(=O)N[C@@H](Cc1ccc(O)cc1)C(=O)N[C@H](C(=O)NCCCCCC(N)=O)[C@@H](C)CC (H-[dNle]YI[Ahx]-NH2)	marked inhibitory activity	68.2 ± 32.2 µg/mL	different from the HGF alone group but not different from the control group	completely block HGF dimer formation	statistically different than the HGF treated group	bind HGF with high affinity	able to block Met auto-phosphorylation	no detectable metabolism over 90 min	–	–
CCCC[C@@H](N)C(=O)N[C@@H](CS)C(=O)N[C@H](C(=O)NCCCCCC(N)=O)[C@@H](C)CC [D-Nle-Cys-Ile-NH—(CH2)5—CONH2] (H-[dNle]CI[Ahx]-NH2)	marked inhibitory activity	–	different from the HGF alone group but not different from the control group	completely block HGF dimer formation	–	bind HGF with high affinity	able to block Met auto-phosphorylation	–	statistically different than the HGF treated group	suppressed pulmonary colonization; also recorded: radically prevented lung colonization; also recorded: obvious reduction in melanoma colonies
